Measured values reported in ChEMBL document CHEMBL1140853, “The stereochemistry of N-methyl and aryl substituents determine the biological activities of 3-aryl-8-methyl-8-azabicyclo[3.2.1]oct-2,3-enes” (Bioorg Med Chem, 2009).

Columns and labels:
[1] = species on record: Homo sapiens; assay: Selectivity for human SERT over human NET
[2] = species on record: Homo sapiens; assay: Selectivity for human SERT over human DAT

Compound | Ratio [1] | Ratio [2]
CN1C2C=C(C3c4ccccc4-c4ccccc43)CC1CC2 (configuration not stated) | 120 | 13.6
CN1C2C=C(c3c[nH]c4ccccc34)CC1CC2 (configuration not stated) | 54 | 8.3
CN1C2C=C(c3cccc(-c4ccccc4)c3)CC1CC2 (configuration not stated) | 34 | 10.8
CN1C2C=C(c3ccc4c(c3)Cc3ccccc3-4)CC1CC2 (configuration not stated) | 232 | 52.2
CN1C2C=C(c3cccc4ccccc34)CC1CC2 (configuration not stated) | 94.4 | 11.6
CN1C2C=C(c3ccccc3-c3ccccc3)CC1CC2 (configuration not stated) | 3.8 | 5.4
